Experimental data as given in patent US20230174523A1, “BENZENESULFONAMIDE DERIVATIVES AS TRAP1 MODULATORS AND USES THEREOF” (Amathus Therapeutics, Inc., priority 2020, published 2023).

Target: T1, TRAP1 enzyme (Homo sapiens, UniProt Q12931)
T1 sequence (Q12931 60-704): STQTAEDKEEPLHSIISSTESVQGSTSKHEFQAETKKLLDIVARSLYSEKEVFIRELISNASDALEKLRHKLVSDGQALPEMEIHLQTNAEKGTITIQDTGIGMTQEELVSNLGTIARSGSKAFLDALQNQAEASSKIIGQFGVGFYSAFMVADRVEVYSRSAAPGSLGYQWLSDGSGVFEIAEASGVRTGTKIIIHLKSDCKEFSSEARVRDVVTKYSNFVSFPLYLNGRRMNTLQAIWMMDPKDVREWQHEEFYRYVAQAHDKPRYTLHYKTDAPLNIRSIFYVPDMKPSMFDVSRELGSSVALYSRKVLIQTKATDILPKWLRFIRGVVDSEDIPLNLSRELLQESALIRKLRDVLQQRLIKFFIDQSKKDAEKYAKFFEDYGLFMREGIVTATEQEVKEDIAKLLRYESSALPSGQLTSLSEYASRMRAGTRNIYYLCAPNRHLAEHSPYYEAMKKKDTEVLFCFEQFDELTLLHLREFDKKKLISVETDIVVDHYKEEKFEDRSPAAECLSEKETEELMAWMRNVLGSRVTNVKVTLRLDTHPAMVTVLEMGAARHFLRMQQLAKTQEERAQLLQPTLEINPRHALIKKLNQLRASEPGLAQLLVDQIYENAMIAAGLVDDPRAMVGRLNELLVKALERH
Assay: ADP Glo assay of TRAP1 ATPase activity
Type: biochemical
Details: for EC50: TRAP1 ATPase activation, 150 nM Trap1, 20 μM ATP, geometric mean, read-out: ADP GLO DRC: GeoMean EC50; for Emax: read-out: ADP GLO DRC: Mean Emax
Protocol: Potency of test compounds to modulate the ATPase activity of TRAP1 enzyme was evaluated using ADP Glo assay. The assay is based on quantification of the ADP generated from ATP in the ATPase reaction. The assay is performed in two steps: first, after the ATPase reaction, an equal volume of ADP-Glo™ Reagent is added to terminate the ATPase reaction and deplete the remaining ATP. Second, the Kinase Detection Reagent is added to simultaneously convert ADP to ATP and allow the newly synthesized ATP to be measured using a luciferase/luciferin reaction.
All the assays were carried out in a 384-well Proxiplate. The buffer used was 25 mM Pipes pH-7.5, 40 mM KCl, 0.05 mM MgCl2, 0.025% BSA, 0.316 mM EGTA, 0.003% Empigen, 0.01% Igepal. 150 nM Trap1 enzyme was incubated with various concentrations of the test compound (0.79 μM-100 μM) at 37° C. for 30 mins (except in blank wells). 20 μM ATP was added to each well to start the reaction. The plate was spun for 1 min at 1200 rpm and then incubated at 37° C. for 60 mins. 5 μl of ADP Glo reagent was added to all the wells and spun the plate for 1 min at 1200 rpm and kept it on a shaker at ambient temperature for 60 mins. 10 μl of kinase detection mix was added to all the wells and the plate was read for Luminescence at 495 nm. The amount of ADP released was estimated from ATP/ADP standard curve generated at the same experimental conditions. Emax (Maximal percent activation) and EC50 (concentration for half maximal activation) were estimated by fitting the dose response data to a sigmoidal curve fitting equation using Graphpad Prism software V. 8.

Compound | EC50 [µM] | Emax [%]
COc1ccc(NC(=O)c2cn(C)nc2C(F)F)cc1S(=O)(=O)Nc1c(C)cccc1C [Compound 1074] | 20 to 100 | 160 to 199
COc1ccc(NC(=O)c2cnc(Cl)cc2Cl)cc1S(=O)(=O)Nc1c(C)cccc1C [Compound 1082] | 20 to 100 | 200 to 300
COc1ccc(NC(=O)c2c(I)cnn2C)cc1S(=O)(=O)Nc1c(C)cccc1C [Compound 1088] | 20 to 100 | 160 to 199
COc1ccc(NC(=O)c2cccc(C(=O)N(C)C)c2)cc1S(=O)(=O)Nc1c(C)cccc1C [Compound 1095] | 20 to 100 | 160 to 199
COc1ccc(NC(=O)c2cccnc2-c2cc(F)cc(F)c2)cc1S(=O)(=O)Nc1c(C)cccc1C [Compound 1096] | 10 to 20 | 123 to 159
COc1ccc(NC(=O)c2ncccc2-c2ccccc2)cc1S(=O)(=O)Nc1c(C)cccc1C [Compound 1098] | 10 to 20 | 200 to 300
COc1ccc(NC(=O)c2cccc(C#N)c2Cl)cc1S(=O)(=O)Nc1c(C)cccc1C [Compound 1100] | 10 to 20 | 200 to 300
COc1ccc(NC(=O)c2cc(C)cs2)cc1S(=O)(=O)Nc1c(C)cccc1C [Compound 1101] | 10 to 20 | 160 to 199
COc1ccc(NC(=O)c2ccnn2C(C)C)cc1S(=O)(=O)Nc1c(C)cccc1C [Compound 1104] | 10 to 20 | 200 to 300
COc1ccc(NC(=O)c2cnn(-c3cccnc3)c2)cc1S(=O)(=O)Nc1c(C)cccc1C [Compound 1106] | 10 to 20 | 200 to 300
COc1ccc(NC(=O)c2cncc(Br)c2C)cc1S(=O)(=O)Nc1c(C)cccc1C [Compound 1107] | 10 to 20 | 200 to 300
COc1ccc(NC(=O)c2cn(C)c3ncccc23)cc1S(=O)(=O)Nc1c(C)cccc1C [Compound 1108] | 10 to 20 | > 300
COc1ccc(NC(=O)c2nn(C(C)C)c3ccccc23)cc1S(=O)(=O)Nc1c(C)cccc1C [Compound 1109] | < 10 | 123 to 159
COc1ccc(NC(=O)c2c(C(F)(F)F)coc2C)cc1S(=O)(=O)Nc1c(C)cccc1C [Compound 1111] | 10 to 20 | 160 to 199
COc1ccc(NC(=O)c2noc3c2CCCC3)cc1S(=O)(=O)Nc1c(C)cccc1C [Compound 1114] | 10 to 20 | 200 to 300
COc1ccc(NC(=O)c2sc(Br)nc2C)cc1S(=O)(=O)Nc1c(C)cccc1C [Compound 1115] | 10 to 20 | 200 to 300
COc1ccc(NC(=O)c2ccc3nc(C)ccc3c2)cc1S(=O)(=O)Nc1c(C)cccc1C [Compound 1118] | 10 to 20 | 200 to 300

Compound | EC50 [µM] | Emax [%]
COc1ccc(NC(=O)c2ccc(S(=O)(=O)N(C)C)cc2)cc1S(=O)(=O)Nc1c(C)cccc1C [Compound 1120] | 20 to 100 | 160 to 199
COc1ccc(NC(=O)c2ccoc2C(F)(F)F)cc1S(=O)(=O)Nc1c(C)cccc1C [Compound 1122] | 20 to 100 | 160 to 199
COc1ccc(NC(=O)c2cccc(N3CCCC3=O)c2)cc1S(=O)(=O)Nc1c(C)cccc1C [Compound 1123] | 10 to 20 | 200 to 300
COc1ccc(NC(=O)c2ccc3c(=O)n(C)cnc3c2)cc1S(=O)(=O)Nc1c(C)cccc1C [Compound 1124] | 10 to 20 | 200 to 300
COc1ccc(NC(=O)c2cccc(-n3cncn3)c2)cc1S(=O)(=O)Nc1c(C)cccc1C [Compound 1126] | 10 to 20 | 160 to 199
COc1ccc(NC(=O)c2ncc(OC(F)F)cc2Cl)cc1S(=O)(=O)Nc1c(C)cccc1C [Compound 1127] | 20 to 100 | 123 to 159
COc1ccc(NC(=O)c2ccc(Br)nc2F)cc1S(=O)(=O)Nc1c(C)cccc1C [Compound 1131] | 20 to 100 | 123 to 159
CCc1ncsc1C(=O)Nc1ccc(OC)c(S(=O)(=O)Nc2c(C)cccc2C)c1 [Compound 1137] | 20 to 100 | 160 to 199
COc1ccc(NC(=O)c2nc(-c3ccccc3)oc2C)cc1S(=O)(=O)Nc1c(C)cccc1C [Compound 1139] | < 10 | 123 to 159
COc1ccc(NC(=O)c2cc(C#N)ccc2Br)cc1S(=O)(=O)Nc1c(C)cccc1C [Compound 1141] | 20 to 100 | 160 to 199
COc1ccc(NC(=O)c2ccc(-c3ccc(F)cc3)cc2F)cc1S(=O)(=O)Nc1c(C)cccc1C [Compound 1142] | < 10 | 123 to 159
COc1ccc(NC(=O)c2csc3c2CCCC3)cc1S(=O)(=O)Nc1c(C)cccc1C [Compound 1144] | < 10 | 160 to 199
CCOc1c(F)c(F)cc(C(=O)Nc2ccc(OC)c(S(=O)(=O)Nc3c(C)cccc3C)c2)c1F [Compound 1145] | < 10 | 123 to 159
COc1ccc(NC(=O)c2ccc3c(c2)n(C)c(=O)n3C)cc1S(=O)(=O)Nc1c(C)cccc1C [Compound 1146] | < 10 | 200 to 300
COc1ccc(NC(=O)c2cnn3cccnc23)cc1S(=O)(=O)Nc1c(C)cccc1C [Compound 1147] | 20 to 100 | 200 to 300
COc1ccc(NC(=O)c2cc(C)n(C(F)F)n2)cc1S(=O)(=O)Nc1c(C)cccc1C [Compound 1149] | 10 to 20 | 123 to 159
CCc1ccnc(C(=O)Nc2ccc(OC)c(S(=O)(=O)Nc3c(C)cccc3C)c2)c1 [Compound 1151] | < 10 | 200 to 300

The remaining lines, values ahead:

EC50 [µM] | Emax [%] | Compound
< 10 | 123 to 159 | COc1ccc(NC(=O)c2cnc(OC)c(C(F)(F)F)c2)cc1S(=O)(=O)Nc1c(C)cccc1C [Compound 1073]
< 10 | 160 to 199 | COc1ccc(NC(=O)c2cc(N3CCCC3)ccn2)cc1S(=O)(=O)Nc1c(C)cccc1C [Compound 1077]
< 10 | 160 to 199 | COc1ccc(NC(=O)c2cc(-c3ccnn3C)c(Cl)s2)cc1S(=O)(=O)Nc1c(C)cccc1C [Compound 1079]
< 10 | 160 to 199 | COc1cc(C#N)cc(C(=O)Nc2ccc(OC)c(S(=O)(=O)Nc3c(C)cccc3C)c2)c1 [Compound 1090]
< 10 | 160 to 199 | COc1ccc(NC(=O)c2cc(F)ccc2OC(F)(F)F)cc1S(=O)(=O)Nc1c(C)cccc1C [Compound 1092]
< 10 | 200 to 300 | CCn1nc(C(C)C)cc1C(=O)Nc1ccc(OC)c(S(=O)(=O)Nc2c(C)cccc2C)c1 [Compound 1093]
< 10 | 200 to 300 | COc1ccc(NC(=O)c2cccc3ccoc23)cc1S(=O)(=O)Nc1c(C)cccc1C [Compound 1094]
< 10 | 160 to 199 | COc1ccc(NC(=O)c2cn(C(C)C)cc2C(F)(F)F)cc1S(=O)(=O)Nc1c(C)cccc1C [Compound 1103]
< 10 | 160 to 199 | COc1ccc(NC(=O)c2cnn(-c3ccc(Cl)cc3)c2C)cc1S(=O)(=O)Nc1c(C)cccc1C [Compound 1110]
< 10 | 160 to 199 | COc1ccc2oc(C(=O)Nc3ccc(OC)c(S(=O)(=O)Nc4c(C)cccc4C)c3)cc2c1 [Compound 1112]
< 10 | 160 to 199 | COc1ccc(NC(=O)c2csc(-c3ccccc3)n2)cc1S(=O)(=O)Nc1c(C)cccc1C [Compound 1116]
< 10 | 123 to 159 | CCOc1cc(OCC)cc(C(=O)Nc2ccc(OC)c(S(=O)(=O)Nc3c(C)cccc3C)c2)c1 [Compound 1117]
< 10 | 160 to 199 | COc1ccc(NC(=O)c2ccc3c(c2)CCCO3)cc1S(=O)(=O)Nc1c(C)cccc1C [Compound 1121]
< 10 | 160 to 199 | COc1ccc(NC(=O)c2nc3c(C)cccc3s2)cc1S(=O)(=O)Nc1c(C)cccc1C [Compound 1125]
< 10 | 160 to 199 | COc1ccc(NC(=O)c2scc(C)c2Cl)cc1S(=O)(=O)Nc1c(C)cccc1C [Compound 1128]
< 10 | 160 to 199 | COc1ccc(NC(=O)c2csc(-c3cccs3)n2)cc1S(=O)(=O)Nc1c(C)cccc1C [Compound 1136]
